Values after ≈ are worked out from the molar mass of the structure shown.

This is an account of results in US12653821B2 (SHANGHAI BOCIMED PHARMACEUTICAL CO., LTD., priority 2020, dated 2026).

A short description of series [1]: In vitro dissolution simulation experiment, pH 7.4 phosphate buffer. The series is classed as physicochemical. The settings on record: 37° C. On the procedure:
The mixtures were shaken at 37° C.

For series [2] the following is noted: humans; cited from earlier work.
A further series can be described thus: physchem. The settings on record: 37 °C, thermodynamic from solid. On the procedure:
The mixtures were shaken at 37° C. for 24 h and filtered through 0.45 μm aqueous-phase filter membranes. The filtrates were collected and the solubility was determined by high performance liquid chromatography. pH3, pH4, pH5 and pH6 represent acetate buffer solutions, and pH7, pH7.4, pH8 and pH9 represent phosphate buffer solutions.

Series [3] can be described thus: Pharmacokinetic experiment in rats (plasma cariprazine, LC-MS/MS). The settings on record: intramuscular injection at 9 mg/kg.
Protocol: In the whole experiment, the animals from the intramuscular injection group were given ad libitum access to food and water, and those from the oral intragastrical group were fasted overnight before administration and given access to food 4 h after administration.
Plasma sample collection: about 150 μL of blood was collected from the jugular vein (whole blood was centrifuged within 30 min to isolate plasma) and placed in a tube containing anticoagulant EDTA-K2, and after treatment, plasma was stored in a freezer at −70° C. before use.
Pretreatment of plasma sample: to 30 μL of plasma sample was added 200 μL of internal standard solution (40 ng/mL Glipizide acetonitrile solution); the mixture was vortexed for 1 min and centrifuged at 5800 rpm at 4° C. for 10 min; 100 μL of supernatant was transferred to a new plate and 1 μL of solution was taken for LC-MS/MS analysis.
Secondary mass spectrometry analysis was performed using an electrospray ion source (Turbo spray) in the multiple reaction monitoring (MRM) mode under the positive ion detection mode.

In the case of `CN(C)C(=O)NC1CCC(CCN2CCN(c3cccc(Cl)c3Cl)CC2)CC1` (centres unmarked) [Amorphous cariprazine embonate, cariprazine embonate], in series [1], the “Concentration, 1 (h)” value was 11940 ng/mL; the “Concentration, 5 (h)” value was 9580 ng/mL; the “Concentration, 7 (h)” value is 7080 ng/mL; the “Concentration, 24 (h)” value was 9900 ng/mL.

With `CN(C)C(=O)N[C@H]1CC[C@H](CCN2CCN(c3cccc(Cl)c3Cl)CC2)CC1` [Cariprazine, cariprazine], in series [2], the cariprazine clearance was 3 to 9 days. Also, the solubility (as a rule, how much of the substance goes into solution per volume) at 24 h was 1360 µg/mL (≈ 3190 µM) in “physchem” (pH 3, aqueous buffer); 243 µg/mL (≈ 568 µM) in the series “physchem” (pH 5, aqueous buffer); 3.2 µg/mL (≈ 7.49 µM) in the series “physchem” (pH 7, aqueous buffer); 1.4 µg/mL (≈ 3.28 µM) in “physchem” (pH 9, aqueous buffer).

`CN(C)C(=O)NC1CCC(CCN2CCN(c3cccc(Cl)c3Cl)CC2)CC1` (centres unmarked) [Crystalline form A of cariprazine embonate]: in series [1], the “Concentration, 1 (h)” value was 1000 ng/mL; the “Concentration, 5 (h)” value was 4100 ng/mL; the “Concentration, 7 (h)” value is 3900 ng/mL; the “Concentration, 24 (h)” value is 2500 ng/mL. Moreover, in series [3], the “length of release among the crystalline forms” value is “best length of release”.

In the series “physchem” (pH 5, aqueous buffer), `CN(C)C(=O)N[C@H]1CC[C@H](CCN2CCN(c3cccc(Cl)c3Cl)CC2)CC1.Cl` [Cariprazine hydrochloride] showed a solubility at 24 h of 10800 µg/mL.

As to `CN(C)C(=O)NC1CCC(CCN2CCN(c3cccc(Cl)c3Cl)CC2)CC1` (centres unmarked) [Crystalline form B of cariprazine embonate], in series [1], the “Concentration, 1 (h)” value is 5300 ng/mL; the “Concentration, 5 (h)” value was 5200 ng/mL; the “Concentration, 7 (h)” value was 2200 ng/mL; the “Concentration, 24 (h)” value was 1700 ng/mL.

On to `CN(C)C(=O)NC1CCC(CCN2CCN(c3cccc(Cl)c3Cl)CC2)CC1` (centres unmarked) [Crystalline form G of cariprazine embonate], for which, in series [1], the “Concentration, 1 (h)” value is 1300 ng/mL; the “Concentration, 5 (h)” value is 2280 ng/mL; the “Concentration, 7 (h)” value was 1840 ng/mL; the “Concentration, 24 (h)” value was 8050 ng/mL.
